# Laboratory results as given in the supplement of paper PMC10307832.
# Columns and labels:
# Test in all cases: relative viability (nuclei count vs DMSO), 5 days (fraction); higher = more cells survive
# [1] = compound: COC1=CC=C(C=C1)COC2=C(C=C(C=C2)CC3=CN=C(N=C3N)N)OC [GW-2580] + CC(=O)Nc1cccc(-n2c(=O)n(C3CC3)c(=O)c3c(Nc4ccc(I)cc4F)n(C)c(=O)c(C)c32)c1 [Trametinib] (partner 0.02 µM)
# Method in brief: (§1)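 After 5 days of treatment, lung cancer cells in 1536-well plates were fixed and stained in a single step (final 0.05% Triton X-100, 1% formaldehyde, 1 ug/ml Hoechst) and their nuclei counted on 4× images. Treatment had been applied by pin tool the day after seeding as one drug alone or as a fixed anchor-drug dose with five library-drug doses (not always all listed) in √10 steps. Relative viability is the nuclei count of treated wells divided by that of vehicle wells, and values are medians of duplicate plates.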
# [2] = compound: COC1=CC=C(C=C1)COC2=C(C=C(C=C2)CC3=CN=C(N=C3N)N)OC [GW-2580] + COc1cccc2cc(-c3nc([C@H]4CC[C@H](C(=O)O)CC4)n4ncnc(N)c34)[nH]c12 [OSI-027] (partner 0.5 µM)
# Method in brief: as §1
# [3] = compound: COC1=CC=C(C=C1)COC2=C(C=C(C=C2)CC3=CN=C(N=C3N)N)OC [GW-2580] + CS(=O)(=O)N1CCN(Cc2cc3nc(-c4cccc5[nH]ncc45)nc(N4CCOCC4)c3s2)CC1 [Pictilisib] (partner 1 µM)
# Method in brief: as §1
# [4] = compound: Cc1cnc(Nc2ccc(OCCN3CCCC3)cc2)nc1Nc1cccc(S(=O)(=O)NC(C)(C)C)c1 [Fedratinib] + CC(=O)Nc1cccc(-n2c(=O)n(C3CC3)c(=O)c3c(Nc4ccc(I)cc4F)n(C)c(=O)c(C)c32)c1 [Trametinib] (partner 0.02 µM)
# Method in brief: as §1
# [5] = compound: Cc1cnc(Nc2ccc(OCCN3CCCC3)cc2)nc1Nc1cccc(S(=O)(=O)NC(C)(C)C)c1 [Fedratinib] + Nc1nc2[nH]cc(CCc3ccc(C(=O)N[C@@H](CCC(=O)O)C(=O)O)cc3)c2c(=O)[nH]1 [Pemetrexed] (partner 0.2 µM)
# Method in brief: as §1
cell line,measurement,setting,value
UMC-11,relative viability,[1]; first compound 0.08 µM,0.826
same,relative viability,[1]; first compound 0.8 µM,0.866
same,relative viability,[1]; first compound 2.53 µM,0.574
same,relative viability,[1]; first compound 8 µM,0.817
same,relative viability,[2]; first compound 0.08 µM,0.531
same,relative viability,[2]; first compound 0.8 µM,0.508
same,relative viability,[2]; first compound 2.53 µM,0.515
same,relative viability,[2]; first compound 8 µM,0.439
same,relative viability,[3]; first compound 0.08 µM,0.828
same,relative viability,[3]; first compound 0.8 µM,1.01
same,relative viability,[3]; first compound 2.53 µM,0.695
same,relative viability,[3]; first compound 8 µM,0.823
same,relative viability,[4]; first compound 0.1 µM,0.625
same,relative viability,[4]; first compound 0.3162 µM,0.476
same,relative viability,[4]; first compound 1 µM,0.52
same,relative viability,[5]; first compound 0.1 µM,0.756
same,relative viability,[5]; first compound 0.3162 µM,0.66
same,relative viability,[5]; first compound 1 µM,0.665
